The values below come from patent US6147100A, “Pyrrolidine derivatives having phospholipase A2 inhibitory activity” (Shionogi & Co., Ltd., priority 1997, dated 2000).

In assay [1] the target is T1, cPLA2 (Homo sapiens, UniProt P47712).
T1 sequence (P47712 1-749): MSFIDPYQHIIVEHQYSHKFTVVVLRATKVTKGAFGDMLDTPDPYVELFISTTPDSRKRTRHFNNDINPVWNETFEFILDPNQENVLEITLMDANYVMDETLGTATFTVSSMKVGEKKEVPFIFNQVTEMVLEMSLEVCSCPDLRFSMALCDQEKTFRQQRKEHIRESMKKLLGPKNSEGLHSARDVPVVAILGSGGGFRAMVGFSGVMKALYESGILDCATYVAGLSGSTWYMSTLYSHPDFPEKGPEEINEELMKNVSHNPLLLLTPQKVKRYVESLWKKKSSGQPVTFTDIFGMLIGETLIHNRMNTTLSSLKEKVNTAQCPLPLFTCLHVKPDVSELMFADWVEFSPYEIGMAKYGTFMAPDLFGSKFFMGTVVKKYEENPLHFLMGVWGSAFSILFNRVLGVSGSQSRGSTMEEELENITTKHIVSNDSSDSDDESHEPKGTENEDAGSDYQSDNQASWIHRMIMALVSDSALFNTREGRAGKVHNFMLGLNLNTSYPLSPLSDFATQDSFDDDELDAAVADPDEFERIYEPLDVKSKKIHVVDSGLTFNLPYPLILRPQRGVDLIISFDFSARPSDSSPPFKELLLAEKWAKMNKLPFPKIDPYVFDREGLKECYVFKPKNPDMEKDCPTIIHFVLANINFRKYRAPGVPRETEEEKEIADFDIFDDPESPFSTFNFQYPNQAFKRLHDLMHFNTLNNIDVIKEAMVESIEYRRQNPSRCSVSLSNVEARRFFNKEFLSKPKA
The experiment in a line: cPLA2 Inhibitory Activity. Format: biochemical. The conditions noted are these: 1-palmitoyl-2-[14C]-arachidonoyl-sn-glycero-3-phosphocholine 2.5 μM, sn-1,2-dioleoylglycerol 1.25 μM; pH 7.5, 15 min at 37° C. The gist of the method:
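Radiometric assay in 50 mM HEPES pH 7.5 with 1 mM CaCl2, 150 mM NaCl, 0.1 mg/ml BSA and 1.7 mM DTT; compound and substrate added, reaction started with enzyme, 15 min at 37° C. Released fatty acids extracted (Dole method), counted by liquid scintillation versus no-compound control.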

Assay [2] relates to production of prostaglandin E2 by human fibroblasts. Briefly: Inhibition of Production of Prostaglandin E2 in Human Fibroblasts (IL-1 stimulation). Format: cell-based. The conditions noted are these: Fibroblast; human fibroblasts under stimulation with IL-1. Summed up: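 Human fibroblasts stimulated with IL-1, with prostaglandin E2 production measured in the presence of compound as a cellular read-out of cPLA2 inhibition.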

As to `CC(C)CN(C(c1ccccc1)c1ccccc1)[C@@H]1C[C@@H](CNC(=O)/C=C/c2ccc(/C=C3\SC(=O)NC3=O)cc2)N(C(=O)c2ccccc2C(=O)c2ccc(F)cc2F)C1` [Compound M-21], the IC50 in assay [1] is 2.1 nM; in assay [2], 310 nM.

For `CN(Cc1ccccc1)[C@@H]1C[C@@H](C(=O)Nc2ccc(/C=C3\SC(=S)NC3=O)cc2)N(C(=O)c2ccccc2C(=O)c2ccc(F)cc2)C1` [Compound N-1], the IC50 was determined as 140 nM in assay [1] and 760 nM in assay [2].

`CN(Cc1ccccc1-c1ccccc1)[C@@H]1C[C@@H](C(=O)Nc2ccc(/C=C3\SC(=O)NC3=O)cc2)N(C(=O)c2ccccc2C(=O)c2ccc(F)cc2)C1` [Compound N-2]: the concentration for half-maximal inhibition (IC50) in assay [1] worked out at 130 nM; in assay [2], 1800 nM.

Regarding `CN(Cc1ccccc1-c1ccccc1)[C@@H]1C[C@@H](C(=O)Nc2ccc(/C=C3\SC(=S)NC3=O)cc2)N(C(=O)c2ccccc2C(=O)c2ccc(F)cc2)C1` [Compound N-3], the IC50 in assay [1] is 59 nM; in assay [2], 1000 nM.

With `O=C1NC(=O)/C(=C/c2ccc(C(=O)NC[C@@H]3C[C@@H](Cc4ccccc4-c4ccccc4)CN3C(=O)c3ccccc3C(=O)c3ccc(F)cc3)cc2)S1` [Compound O-1], the IC50 in assay [1] is 200 nM; in assay [2], 760 nM.

Consider `O=C1NC(=O)/C(=C/c2ccc(C(=O)NC[C@@H]3C[C@@H](COc4ccccc4-c4ccccc4)CN3C(=O)c3ccccc3C(=O)c3ccc(F)cc3)cc2)S1` [Compound O-2], for which the figures for the IC50 in assay [1] and in assay [2] were 58 nM and 230 nM, respectively.

Regarding `O=C1NC(=O)/C(=C/c2ccc(C(=O)NC[C@@H]3C[C@@H](CCc4ccccc4-c4ccccc4)CN3C(=O)c3ccccc3C(=O)c3ccc(F)cc3)cc2)S1` [Compound O-3], the 50% inhibitory concentration (IC50) in assay [1] came to 55 nM; in assay [2] it was 1100 nM.

As to `O=C1NC(=O)/C(=C/c2ccc(C(=O)NC[C@H]3C[C@@H](SCc4ccccc4-c4ccccc4)CN3C(=O)c3ccccc3C(=O)c3ccc(F)cc3)cc2)S1` [Compound Q-1], the IC50 in assay [1] amounted to 2510 nM; in assay [2], 1200 nM.

Regarding `O=C1NC(=O)/C(=C/c2ccc(C(=O)NC[C@H]3C[C@@H](OCc4ccccc4-c4ccccc4)CN3C(=O)c3ccccc3C(=O)c3ccc(F)cc3)cc2)S1` [Compound Q-2], the IC50 in assay [1] is 1810 nM; in assay [2] it was 1400 nM.

In the case of `O=C1NC(=O)/C(=C/c2ccc(C(=O)NC[C@@H]3C[C@H](OCc4ccccc4-c4ccccc4)CN3C(=O)c3ccccc3C(=O)c3ccc(F)cc3)cc2)S1` [Compound Q-3], the IC50 in assay [1] is 200 nM; in assay [2] it was 490 nM.

On to `O=C1NC(=O)/C(=C/c2ccc(C(=O)NC[C@H]3C[C@H](SCc4ccccc4-c4ccccc4)CN3C(=O)c3ccccc3C(=O)c3ccc(F)cc3)cc2)S1` [Compound Q-4], for which the IC50 in assay [1] was 1850 nM; in assay [2], 950 nM.

Regarding `O=C1NC(=O)/C(=C/c2ccc(C(=O)NC[C@H]3C[C@H](OCc4ccccc4-c4ccccc4)CN3C(=O)c3ccccc3C(=O)c3ccc(F)cc3)cc2)S1` [Compound Q-5], the IC50 came out at 1920 nM in assay [1] and 1300 nM in assay [2].

A word on the IC50: it is the point on the concentration scale where inhibition reaches its midpoint. Read a high IC50 as lower potency.
